Read-outs that look alike come from different tables or passages of the source.
Biological target: T1, gastric H,K-ATPase (Sus scrofa, UniProt P19156)
T1 construct: We prepared H,K-ATPase (EC 7.2.2.19)-enriched membrane vesicles according to Sachs et al; from tissue; host or cells: gastric membrane vesicles
Experiment: H,K-ATPase activity (Pi release from ATP) inhibition, steady-state kinetic analysis
Type: biochemical, hog
Details: for IC50: 10 mM KCl, read-out: K0.5 for inhibition of ATPase activity; for Kd: fit of model III (binding to E2P and E1ATP), 37 °C
Description: We prepared H,K-ATPase (EC 7.2.2.19)-enriched membrane vesicles according to Sachs et al. ([36]), with slight modifications. The number of nucleotide sites measured under optimal conditions (2.2 mM ATP, 4 mM MgCl2, 0.25 mM EDTA in 25 mM imidazole–HCl, pH 7.4 at 25 °C) was 1.4 nmol per mg of protein. This preparation is essentially free of contamination with Na,K-ATPase, as evidenced by the lack of ouabain-sensitive activity. 0.4 to 0.6 mg alamethicin per milligram protein was used to permeabilize the vesicles.
ATP hydrolysis by H,K-ATPase was measured by following the time course of Pi release at 37 °C; linearity was always checked in order to ensure initial rate conditions. Pi concentration was determined according to the method described by Baginski et al. ([37]) Incubations were performed at 37 °C in media containing 8 μg protein ml^−1, 2 mM ATP, 4 mM MgCl2, and 0.25 mM EDTA in 20 mM imidazole – 20 mM Tris (varying pH) in a final volume of 0.25 ml. KCl concentrations varied between 0 and 100 mM, using choline chloride to adjust total monovalent salt concentration to 150 mM. Reaction blanks were determined by measuring ATP hydrolysis in media containing vanadate. For experiments at variable pH, a buffer combination of 20 mM imidazole-HCl and 20 mM Tris–HCl was used. Tegoprazan and SCH28080 were dissolved in DMSO. The final DMSO concentration in the reaction media was 1%.
were fitted to the data of ATPase activity by nonlinear regression based on the Gauss–Newton algorithm by commercial programs ([38]). Kis parameters are apparent dissociation constants expressed in concentration units, whereas the ais parameters are coefficients with units of activity. A methodical exploration of the equation that best fits each set of results was performed. We first determined the degree of the polynomials in the numerator and the denominator (considering the restriction of n ≤ d and m ≤ d to conform to steady-state equations for enzymes) and then evaluated the contribution of terms of intermediate degree. The goodness of fit of a given equation to the experimental results was evaluated by the AICc ([39]) defined as(5) AICc=N·ln(SS/N)+2·(K+1)·N/(N−K−2) with N: number of data, K: number of parameters, and SS: sum of weighted square residual errors. This criterion allows one to select among multiple equations, the one that best describes the behavior of the experimental data using the least number of parameters, that is the lower value of AICc.
The equations of activity as a function of ligands for each kinetic model were attained using the Mathematica for Windows program. To determine the parameters that will be used to simulate the data, the rate constants and pKa values were fitted to the results using a procedure based on the Gauss–Newton algorithm until the SD of the residual errors reaches a minimal value.

T1 sequence (P19156 2-1034 limits assumed): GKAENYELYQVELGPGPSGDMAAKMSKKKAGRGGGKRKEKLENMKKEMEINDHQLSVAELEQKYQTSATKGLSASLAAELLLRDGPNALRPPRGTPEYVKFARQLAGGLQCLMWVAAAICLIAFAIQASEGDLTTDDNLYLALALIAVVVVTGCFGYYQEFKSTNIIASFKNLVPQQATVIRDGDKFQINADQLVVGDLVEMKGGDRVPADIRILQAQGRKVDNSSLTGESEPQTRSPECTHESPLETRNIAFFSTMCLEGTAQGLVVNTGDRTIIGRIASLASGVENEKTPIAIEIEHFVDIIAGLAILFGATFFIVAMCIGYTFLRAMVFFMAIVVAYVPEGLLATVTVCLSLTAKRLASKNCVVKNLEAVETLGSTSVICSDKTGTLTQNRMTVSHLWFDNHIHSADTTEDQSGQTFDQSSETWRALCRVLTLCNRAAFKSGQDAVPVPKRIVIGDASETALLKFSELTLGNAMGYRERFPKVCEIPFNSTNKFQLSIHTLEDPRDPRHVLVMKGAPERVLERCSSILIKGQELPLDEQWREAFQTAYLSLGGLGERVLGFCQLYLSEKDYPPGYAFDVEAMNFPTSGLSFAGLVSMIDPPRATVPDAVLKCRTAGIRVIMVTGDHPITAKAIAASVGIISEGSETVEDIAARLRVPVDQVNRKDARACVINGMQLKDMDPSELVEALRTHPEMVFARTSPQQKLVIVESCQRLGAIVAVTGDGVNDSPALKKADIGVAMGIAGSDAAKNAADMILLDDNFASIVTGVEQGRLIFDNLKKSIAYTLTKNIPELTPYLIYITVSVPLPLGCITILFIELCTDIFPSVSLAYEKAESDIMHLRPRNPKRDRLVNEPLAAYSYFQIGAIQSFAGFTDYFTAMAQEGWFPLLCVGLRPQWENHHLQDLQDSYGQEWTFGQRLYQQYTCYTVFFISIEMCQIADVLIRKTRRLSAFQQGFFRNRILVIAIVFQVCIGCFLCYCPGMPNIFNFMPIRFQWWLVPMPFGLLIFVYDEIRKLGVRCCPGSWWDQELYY
T1 sequence (P18434 whole entry partner): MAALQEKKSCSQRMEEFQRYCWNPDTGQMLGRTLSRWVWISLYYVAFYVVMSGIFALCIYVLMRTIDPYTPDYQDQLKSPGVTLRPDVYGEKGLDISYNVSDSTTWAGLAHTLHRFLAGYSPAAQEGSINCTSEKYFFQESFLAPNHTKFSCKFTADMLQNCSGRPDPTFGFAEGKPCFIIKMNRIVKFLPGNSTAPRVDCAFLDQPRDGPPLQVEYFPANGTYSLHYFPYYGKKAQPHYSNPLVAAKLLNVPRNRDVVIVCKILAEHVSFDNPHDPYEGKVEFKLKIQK

- effect of inhibitor on K0.5 for potassium (Equation 3) ([K+] 0-15 mM, pH 7.2): increase in K0.5
- effect of inhibitor on Vmax (Equation 3) ([K+] 0-15 mM, pH 7.2): decrease in Vmax
- effect of inhibitor on K1, apparent high-affinity dissociation constant for K+ (Equation 1) ([K+] 0-75 mM): increase in K1
- effect of inhibitor on K2, apparent low-affinity dissociation constant for K+ (Equation 1) ([K+] 0-75 mM): slight increase
- Kii, equilibrium constant for low-affinity binding (E2KATP), model II (fit of model II (binding to E2P and E2KATP), [K+] 0-75 mM): 3.55 µM
- Ki (fit of model II (binding to E2P and E2KATP), [K+] 0-75 mM, read-out: Ki, equilibrium constant for high-affinity binding (E2P), model II): 410 nM
- IC50 (pH 6.2): 890 ± 40 nM
- IC50 (pH 7.2): 3250 ± 290 nM
- Kd (pH 7.2, [K+] 0-75 mM, read-out: apparent Kd / apparent affinity constant, high-affinity binding (Ki) to E2P, model III): 560 ± 40 nM
- Kd (pH 7.2, [K+] 0-75 mM, read-out: apparent Kd / apparent affinity constant, low-affinity binding (Kii) to E1ATP, model III): 2700 ± 240 nM
SMILES: Cc1nc2c(O[C@H]3CCOc4cc(F)cc(F)c43)cc(C(=O)N(C)C)cc2[nH]1 [tegoprazan, (S)-4-((5,7-difluorochroman-4-yl)oxy)-N,N,2-trimethyl−1Hbenzo[d]imidazole-6-carboxamide]
- effect of inhibitor on a1, theoretical maximal activity (Equation 1) ([K+] 0-75 mM): decreases as a function of the inhibitor concentration

From article PMC11697777, “How ligands modulate the gastric H,K-ATPase activity and its inhibition by tegoprazan” (The Journal of Biological Chemistry, 2024)
